According to ChEMBL document CHEMBL1137163, “Structure-activity relationships of potent and selective factor Xa inhibitors: benzimidazole derivatives with the side chain oriented to the prime site of factor Xa” (Bioorg Med Chem Lett, 2004):

Key:
Coagulation factor X = Coagulation factor X (Homo sapiens, UniProt P00742); test: Inhibitory concentration against human Coagulation factor X
Prothrombin = Prothrombin (Homo sapiens, UniProt P00734); test: Inhibitory concentration against Coagulation factor II
Mus musculus = species: Mus musculus; test: Concentration required to produce 50% inhibition of tissue factor-induced platelet aggregation in disseminated intravascular coagulation (DIC) mouse model; format: functional

Sequence of Coagulation factor X (P00742 41-179 limits assumed): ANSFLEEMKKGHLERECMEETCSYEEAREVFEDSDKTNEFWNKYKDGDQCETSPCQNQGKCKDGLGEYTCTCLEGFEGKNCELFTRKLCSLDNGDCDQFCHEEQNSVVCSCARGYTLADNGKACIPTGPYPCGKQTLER
Sequence of Coagulation factor X (P00742 235-488 limits assumed): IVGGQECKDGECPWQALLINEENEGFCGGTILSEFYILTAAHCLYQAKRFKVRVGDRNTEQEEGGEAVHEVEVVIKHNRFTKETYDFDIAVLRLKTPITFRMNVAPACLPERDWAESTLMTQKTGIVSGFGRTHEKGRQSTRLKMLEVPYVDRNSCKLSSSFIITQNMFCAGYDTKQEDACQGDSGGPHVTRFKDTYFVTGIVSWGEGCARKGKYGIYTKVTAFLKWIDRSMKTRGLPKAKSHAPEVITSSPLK

With `CC(=N)N1CCC(Oc2ccc(N(Cc3nc4cc(C(=N)N)ccc4n3CC(=O)NC(C)(C)c3ccccc3)C(=O)c3ccc(C(=O)O)cc3)cc2)CC1` the IC50 (Coagulation factor X) was 200 nM and the IC50 (Prothrombin) was > 10000 nM.

In the case of `CC(=N)N1CC[C@H](Oc2ccc(CCc3cc4cc(C(=N)N)ccc4o3)cc2)C1`, the IC50 (Coagulation factor X) is reported as 600 nM and the IC50 (Prothrombin) is reported as > 10000 nM.

In the case of `CC(=N)N1CCC(Oc2ccc(N(Cc3nc4cc(C(=N)N)ccc4n3CC(=O)NC3CCCCC3)C(=O)c3ccc(C(=O)O)cc3)cc2)CC1.Cl.Cl`, the ED50 (Mus musculus) is reported as 0.2 mg/kg.

In the case of `CC(=N)N1CCC(Oc2ccc(OCc3nc4cc(C(=N)N)ccc4n3CC(=O)NC(C)c3ccccc3)cc2)CC1` (centres undefined), the IC50 (Coagulation factor X) is reported as 30 nM and the IC50 (Prothrombin) is reported as > 10000 nM.

`CC(=N)N1CCC(Oc2ccc(N(Cc3nc4cc(C(=N)N)ccc4n3CC(=O)NCc3ccc(Cl)c(Cl)c3)C(=O)c3ccc(C(=O)O)cc3)cc2)CC1.Cl.Cl` was tested, and the IC50 (Coagulation factor X) was 6 nM, the IC50 (Prothrombin) was > 10000 nM and the ED50 (Mus musculus) was 0.7 mg/kg.

With `CC(=N)N1CCC(Oc2ccc(N(Cc3nc4cc(C(=N)N)ccc4n3CC(=O)Nc3ccc(Cl)c(Cl)c3)C(=O)c3ccc(C(=O)O)cc3)cc2)CC1.Cl.Cl` the IC50 (Coagulation factor X) was 200 nM, the IC50 (Prothrombin) was > 10000 nM and the ED50 (Mus musculus) was 0.7 mg/kg.

`CC(=N)N1CCC(Oc2ccc(OCc3nc4cc(C(=N)N)ccc4n3CC(=O)NCC3CCCCC3)cc2)CC1` was tested, and the IC50 (Coagulation factor X) was 300 nM and the IC50 (Prothrombin) was > 10000 nM.

In the case of `CC(=N)N1CCC(Oc2ccc(OCc3nc4cc(C(=N)N)ccc4n3CC(=O)NCCCc3ccccc3)cc2)CC1`, the IC50 (Coagulation factor X) is reported as 200 nM and the IC50 (Prothrombin) is reported as > 10000 nM.

With `N=C(N)c1ccc2c(c1)nc(CN(C(=O)c1ccc(C(=O)O)cc1)c1ccc(OC3CCNC3)cc1)n2CC(=O)NC1CCCCC1` (centres undefined) the IC50 (Coagulation factor X) was 300 nM and the IC50 (Prothrombin) was > 10000 nM.

`CC(=N)N1CCC(Oc2ccc(OCc3nc4cc(C(=N)N)ccc4n3CC(=O)NCc3ccc(Cl)c(Cl)c3)cc2)CC1` was tested, and the IC50 (Coagulation factor X) was 30 nM and the IC50 (Prothrombin) was > 10000 nM.

In the case of `N=C(N)c1ccc2c(c1)nc(CN(C(=O)c1ccc(C(=O)O)cc1)c1ccc(OC3CCN(C(=N)NCc4ccccc4)CC3)cc1)n2CC(=O)NC1CCCCC1`, the IC50 (Prothrombin) is reported as > 10000 nM.

In the case of `CC(=N)N1CCC(Oc2ccc(N(Cc3nc4cc(C(=N)N)ccc4n3CC(=O)NC3CCCCC3)C(=O)c3ccc(C(=O)O)cc3)cc2)C1` (centres undefined), the IC50 (Coagulation factor X) is reported as 100 nM and the IC50 (Prothrombin) is reported as > 10000 nM.

With `CC(=N)N1CCC(Oc2ccc(OCc3nc4cc(C(=N)N)ccc4n3CC(=O)Nc3ccc(Cl)c(Cl)c3)cc2)CC1` the IC50 (Coagulation factor X) was 60 nM and the IC50 (Prothrombin) was > 10000 nM.

For `CC(=N)N1CCC(Oc2ccc(OCc3nc4cc(C(=N)N)ccc4n3CC(=O)N3CCCCC3)cc2)CC1`, the IC50 (Coagulation factor X) was 3000 nM and the IC50 (Prothrombin) was > 10000 nM.

With `CC(=N)N1CCC(Oc2ccc(OCc3nc4cc(C(=N)N)ccc4n3CC(=O)NC3CCCCC3)cc2)CC1` the IC50 (Coagulation factor X) was 40 nM and the IC50 (Prothrombin) was > 10000 nM.

With `CCn1c(COc2ccc(OC3CCN(C(C)=N)CC3)cc2)nc2cc(C(=N)N)ccc21` the IC50 (Coagulation factor X) was 400 nM and the IC50 (Prothrombin) was > 10000 nM.

`N=C(N)c1ccc(Oc2ccc(N(Cc3nc4cc(C(=N)N)ccc4n3CC(=O)NC3CCCCC3)C(=O)c3ccc(C(=O)O)cc3)cc2)cc1` was tested, and the IC50 (Coagulation factor X) was 2000 nM and the IC50 (Prothrombin) was > 10000 nM.

`CC(=N)N1CCC(Oc2ccc(OCc3nc4cc(C(=N)N)ccc4n3CC(=O)NCc3ccccc3)cc2)CC1` was tested, and the IC50 (Coagulation factor X) was 100 nM and the IC50 (Prothrombin) was > 10000 nM.

With `CC(=N)N1CCC(Oc2ccc(OCc3nc4cc(C(=N)N)ccc4n3CC(=O)Nc3ccccc3)cc2)CC1` the IC50 (Coagulation factor X) was 100 nM and the IC50 (Prothrombin) was > 10000 nM.

With `CC(=N)N1CC[C@H](Oc2ccc([C@H](Cc3ccc4ccc(C(=N)N)cc4c3)C(=O)O)cc2)C1.Cl` [DX-9065A HYDROCHLORIDE HYDRATE] the ED50 (Mus musculus) was 0.5 mg/kg.
